Paper PMC10349804, “Natural resveratrol analogs differentially target endometriotic cells into apoptosis pathways” (Scientific Reports, 2023)
Values joined by “and” are separate entries in the source; they are usually repeats but may differ in a detail not shown here. Identical values can stand only once.

Assays:
CASP3 gene = assay: Real-time PCR, caspase-3 mRNA expression in 12Z cells; type: cell-based, human; details: concentration not given
Text: (§1) Figure 7 Effect of resveratrol and its analogs on the mRNA expression of BCL2, BCL2L1, BAX, FAS, CASP3, CASP8, and CASP9 genes in endometriotic 12Z cells, assessed by real-time PCR. Data were normalized against β-actin and expressed as relative mRNA expression (-fold of control). The values represent the means (n = 3) ± SD. Significant differences *p < 0.05; **p < 0.01; ***p < 0.001 compared to vehicle control.
We analyzed the activation of caspases at the molecular and cellular levels. […] Caspase 3 expression in pterostilbene-induced apoptosis in endometriotic cells was much weaker, even though this compound generated the most significant number of DNA strand breaks. […] It has now been recognized that in response to apoptotic stimuli, mitochondria can also release caspase-independent cell death effectors such as apoptosis-inducing factor (AIF) and endonuclease G. Following release and translocation to the nucleus, AIF becomes an active executioner of the cell death by the initiation of large-scale DNA fragmentation^37. It is essential to realize that apoptosis evolved complex death pathways, which overlap with each other. […]
Gene expression analysis was carried out according to the previously described protocol. […] Relative mRNA expression was shown as fold change calculated using the 2^−ΔΔCt method compared with control cells.

caspases-3/7 = assay: APO-One Homogenous Caspase-3/7 Assay in 12Z cells; type: cell-based, human
Description: Resveratrol evoked a dose-dependent caspase-3/7 activation in 12Z cells (F = 2467.29, p < 0.0001). […] It was consistent with the results of CASP3 gene expression activation. […] There was a 2.8-fold activation of caspase 3/7 enzymes following treatment with piceatannol at a 200 μM dose, which complies with the CASP3 mRNA expression level.
To quantitate the proteolytic activity of caspase 3 and 7, we performed an assay based on the proteolytic cleavage of the C-terminal side of the aspartate residue in the DEVD peptide substrate by caspase 3/7 and into the fluorescent rhodamine 110. Caspase 3/7 activity was determined using the APO-One Homogenous Caspase-3/7 Assay (Promega Corporation, Wisconsin, USA) following the manufacturer's instructions. The obtained data were normalized to cellular protein content. The total protein was quantified by BCA assay (Pierce® BCA Protein Assay Kit, Thermo Scientific Inc., USA) according to the manufacturer's protocol.

epithelial 12Z cells = system: epithelial 12Z cells; set-up: method as in PMID 35361545; details: 100 µM, 48-h treatment; cited from earlier work
[1] = system: endometrial stromal cells derived from patients with endometriosis; set-up: method as in PMID 33083332, PMID 26782781; details: cited from earlier work
BAX gene = assay: Real-time PCR, BAX mRNA expression in 12Z cells; type: cell-based, human; details: fold of control, normalized against β-actin
Text: The effect of resveratrol and its natural analogs on the expression of pro- or antiapoptotic regulators, was examined by real-time PCR. […] BAX overexpression was also documented in 12Z cells exposed to resveratrol.
as §1
(§2) Gene expression analysis was carried out according to the previously described protocol. TRI reagent was applied for total RNA isolation, synthesis cDNA Transcriptor First-Strand kit (Roche Diagnostics GmbH, Mannheim, Germany) for first-strand cDNA synthesis, and SYBR® Select Master Mix (Life Technologies, Carlsbad, CA, USA) for real-time PCR. The levels of transcripts were normalized using β-actin as an internal control, which was previously applied in 12Z cells. Relative mRNA expression was shown as fold change calculated using the 2^−ΔΔCt method compared with control cells.

[2] = system: endometrial stromal T HESC cells; assay: MTT reduction assay, cell viability; type: cell-based, human; details: for IC50: Homo sapiens; for IC50 / IC10: T HESC cells, 48-h incubation, MTT
Description: (§3) The effect of resveratrol and its natural analogs on the viability of endometriotic epithelial 12Z cells and endometrial stromal T HESC cells was assessed using the MTT assay. Table 1 presents the IC10 and IC50 values (the inhibitor concentration required for 10% and 50% reduction in […]) obtained after 48-h incubation with the tested compounds. […] The cytotoxicity of resveratrol and pterostilbene to 12Z cells was not markedly different. T HESC and 12Z cells varied in susceptibility to the treatment with stilbenes tested, as evidenced by the cytotoxic doses shown in Table 1. […] Similarly, resveratrol evoked much weaker cytotoxic effects in T HESC cells than in 12Z cells. Polydatin at concentrations up to 400 µM was not cytotoxic to the T HESC cells, while at a dose of 86.76 µM, it induced the first cytotoxic symptoms in 12Z cells. […] The increased susceptibility of endometriotic 12Z cells than endometrial T HESC cells to resveratrol and its natural analogs was consistent in both assays (Fig. 1).
(§4) The immortalized human endometriotic epithelial cells (12Z), derived from peritoneal endometriosis lesions, were obtained from Applied Biological Materials Inc. (Richmond, Canada). The 12Z cells were cultured in Dulbecco's Modified Eagle Medium/Nutrient Mixture F-12 (DMEM/F12), containing 10% fetal bovine serum (FBS) and 50 mg/L gentamycin. American Type Culture Collection (ATCC, Manassas, VA, USA) was the source for human endometrial stromal cells immortalized by telomerase (T HESC, CRL-4003). The cells were maintained routinely in phenol red-free DMEM/F12 supplemented with 10% charcoal/dextran treated FBS, 1% ITS + 1, and 50 mg/L gentamycin, at 37 °C and 5% CO2. Both cell lines were negative for mycoplasma contamination; mycoplasma-free cells were confirmed repeatedly during the study.
(§5) Cells were seeded at a density of 0.15 × 10^5 cells/cm^2 in 6-well plates. The 24-h cell cultures were treated with resveratrol and its derivatives for 48 h under standard culture conditions. Camptothecin was applied as a reference apoptosis inducer; its final concentrations were set to 5 µM and 50 µM.
(§6) Cell viability and metabolic activity were determined using the MTT colorimetric assay, according to the protocol described in previous studies. Based on the obtained data, the dose–response curves were plotted, and inhibitory concentrations (IC) were calculated. In addition, cell proliferation was measured using the alamarBlue™ Cell Viability Reagent (Invitrogen, Carlsbad, CA, USA) according to the manufacturer's protocol. Fluorescence was measured using a Tecan M200 Infinite microplate reader (Tecan Group Ltd., Männedorf, Switzerland).

[3] = system: endometriotic epithelial 12Z cells; assay: MTT reduction assay, cell viability; type: cell-based, human; details: for IC10 / IC50: 12Z cells, 48-h incubation; for cytotoxicity in 12Z versus T HESC cells, comparing IC50 values: 48 h; for IC50: Homo sapiens
Description: as §3, §4, §5, §6

endometriotic 12Z cells [4] = assay: Cell cycle analysis by PI staining, flow cytometry; type: cell-based, human; details: 100 µM, 48 h
Description: To investigate whether resveratrol and its analogs have interfered with cell cycle progression in endometriotic 12Z cells, we analyzed the cell cycle distribution by flow cytometry. […] The largest subpopulation of apoptotic cells was found in the cell cultures treated with resveratrol and pterostilbene at the concentration of 100 µM (31.2 ± 8.0% and 33.1 ± 9.7%, respectively) and piceatannol at a concentration of 200 µM (45.1 ± 5. 6%).
Cell cycle progression was analyzed by flow cytometry using PI staining. After treatment, 12Z cells were collected, washed with PBS, and fixed in 70% ethanol. The cells were then washed, resuspended in PBS, and stained with 50 μg/ml PI in the presence of 100 μg/ml RNase A. Cell cycle distribution was analyzed using a FACSCanto flow cytometer (Becton Dickinson, San Jose, CA, USA). Data analysis was performed with the FACS Diva software (Becton Dickinson).

endometriotic 12Z cells [5] = assay: TUNEL assay of DNA fragmentation, flow cytometry; type: cell-based, human; details: 48 h
Description: Cell death via apoptosis in 12Z cells after exposure to resveratrol and its natural derivatives was determined by detecting DNA fragmentation (Fig. 5). DNA degradation was correlated in a dose-dependent manner. […] Tunel-positive cell population in the 12Z cell culture treated with camptothecin was estimated at 32.5%, compared to 0.6% in the vehicle-treated control culture.
The detection of DNA fragmentation in 12Z cells was performed using the terminal deoxynucleotidyl-transferase-mediated dUTP nick end labeling (TUNEL) assay with In Situ Cell Death Detection Kit (Roche Diagnostics, Indianapolis, IN, USA). The test detects DNA breakage that is identified by terminal deoxynucleotidyl transferase. After treatment, the harvested cells were fixed in 4% paraformaldehyde and permeabilized in 0.1% Triton X-100. After washing in PBS, cells were subjected to TUNEL labeling with fluorescein-labeled dUTP and terminal deoxynucleotidyl transferase mixture. Cells were analyzed by flow cytometry using an Amnis™ FlowSight™ flow cytometer.

[6] = system: endometrial stromal St-T1b cells; set-up: method as in PMID 35361545; details: 100 µM, 48-h treatment; cited from earlier work
endometriotic 12Z cells [7] = assay: Annexin V/PI double staining, flow cytometry; type: cell-based, human; details: 200 µM, 48 h
Description: After treating endometriotic 12Z cells with stilbenes, the phosphatidylserine externalization was measured by Annexin V and PI double staining (Fig. 4A). Examples of the single-cell images from sub-populations: live cells (Annexin V/PI-double negative), early apoptotic cells (Annexin V-positive/PI-negative), late apoptotic cells (Annexin V/PI-double positive), necrotic cells (Annexin V-negative/PI-positive) are presented in Fig. 4B.
Figure 4 Flow cytometry analysis of endometriotic 12Z cells stained with PI and FITC-Annexin V. Cells were treated with resveratrol, pterostilbene, piceatannol, polydatin and their vehicle (0.5% ethanol) for 48 h. Camptothecin was used as a positive control. (A) Representative images of each distinct cellular subset. n = 4; scale bars = 20 μm. (B) Representative flow cytometry dot plots. (C) Summary of FITC-Annexin V and PI stained populations in 12Z cell cultures. […] The results are presented as means ± SD. *p < 0.05, **p < 0.01, ***p < 0.001 compared to vehicle control.
Apoptosis was determined by Annexin V and propidium iodide (PI) double staining with the FITC Annexin V Apoptosis Detection kit (BD Pharmingen, Heidelberg, Germany) by flow cytometry according to the manufacturer's instructions. […] The cells were analyzed with an Amnis™ FlowSight™ flow cytometer (Luminex Corporation, TX, USA). […]

[8] = system: BAX, FAS, CASP3, CASP8, and CASP9 genes; assay: Real-time PCR, proapoptotic gene panel in 12Z cells; type: cell-based, human
Text: as §1
The FAS overexpression depended on the concentration of stilbenes, reaching a relative expression up to tenfold higher in treated endometriotic cells. The role of proteases in resveratrol-, pterostilbene-, and piceatannol-induced apoptosis was also indicated by the upregulation of well-known initiator caspases of the mitochondrial and death receptor apoptotic pathways such as caspases 8, 9 and executioner caspase 3 (Fig. 7).
as §2, with “The levels of transcripts were normalized using β-actin as an internal control, which was previously applied in 12Z cells.” left out

Row | SMILES | caspase-3/7 activity increase (caspases-3/7; 100 µM) | IC50 [2] | IC10 [2] | IC10 [3] | cytotoxicity in 12Z versus T HESC cells, comparing IC50 values [3] | IC50 [3] | subpopulation of apoptotic cells (lower DNA content, subG1) (endometriotic 12Z cells [4]) | DNA strand breaks (TUNEL-positive cells) (endometriotic 12Z cells [5]; 100 µM) | caspase-3/7 activity increase (caspases-3/7; 200 µM) | DNA strand breaks (TUNEL-positive cells) (endometriotic 12Z cells [5]; concentration not given) | further results
1 | Oc1ccc(/C=C/c2cc(O)cc(O)c2)cc1 [Resveratrol] | 10.3 fold | 251 ± 1.58 µM | 160.35 ± 7.05 µM | 8.99 ± 4.29 µM | fivefold higher | 49.3 ± 11.4 µM | 31.2 ± 8.0% | 42.8% |  |  | caspase-3 mRNA expression upregulation (CASP3 gene): 7.3 fold; reduction of cell viability (epithelial 12Z cells): 45.4%; endometriotic stromal cell viability (reduced to) ([1]; 200 μM): approximately 50%; influence on viability of endometrial stromal cells ([1]; concentrations up to 100 μM, 48-h treatment): did not influence the viability; BAX mRNA expression increase (BAX gene; 50 µM): approximately sevenfold; reduction of cell viability [6]: 49.2%
2 | COc1cc(C=Cc2ccc(O)cc2)cc(OC)c1 [Pterostilbene, 3,5-dimethoxy-4′-hydroxystilbene] | modestly activated | 145 ± 7.71 µM | 113.79 ± 5.11 ^## µM | 29.34 ± 4.46 µM | almost twofold lower | 73.9 ± 6 µM | 33.1 ± 9.7% |  | inhibited their activity |  | treated cells classified as apoptotic cells (endometriotic 12Z cells [7]): approximately 94%; BAX mRNA expression increase (BAX gene; 100 µM): approximately 16 fold; DNA strand breaks (TUNEL-positive cells) (endometriotic 12Z cells [5]; 200 µM): 62.6%
3 | Oc1cc(O)cc(C=Cc2ccc(O)c(O)c2)c1 [Piceatannol, 3,3′,4,5′-tetrahydroxystilbene] |  | 364 ± 17 µM | 222.68 ± 14.49 ^# µM | 167.50 ± 11.36 µM |  | 224 ± 6.47 µM |  | 49.6% and ~50% | 2.8 fold |  | 
4 | OC[C@H]1O[C@@H](Oc2cc(O)cc(/C=C/c3ccc(O)cc3)c2)[C@H](O)[C@@H](O)[C@@H]1O [Polydatin, 3,4′,5-trihydroxystilbene-3-β-D-glucoside] |  | > 400 µM | > 400 µM | 86.76 µM and 86.76 ± 10.01 µM |  | 243 ± 22.5 µM |  |  |  | 1.08% | apoptosis stage induced (Annexin V/PI) (endometriotic 12Z cells [7]; 50 µM, 100 µM): increased population of early apoptosis cells without induction of late apoptosis; caspase 3/7 activity change (caspases-3/7; concentration not given): not significantly changed; mRNA transcripts of BAX, FAS, CASP3, CASP8, and CASP9 genes [8]: did not significantly increase; cytotoxicity to T HESC cells ([2]; concentrations up to 400 µM): not cytotoxic
5 | CC[C@@]1(O)C(=O)OCc2c1cc1n(c2=O)Cc2cc3ccccc3nc2-1 [camptothecin, reference compound] |  |  |  |  |  |  |  |  |  | 32.5% | 
